Data set [1] is described as follows: Effect of in vivo doses on plasma glucose of diabetic rats. Also noted: species or system Sprague Dawley rats. The note with it: n = 5, average ± standard deviation. On the procedure: Compound No. 1 (CP 3182 AR) and No. 2 (CP 3192 AR) were evaluated at various doses, using the experimental model described hereinbefore (.sctn.2.1).
In the case of each product, 25 Sprague Dawley rats fasted the previous day were made diabetic by an intraperitoneal injection of streptozotocin (75 mg/kg). The rats were divided into 5 groups of 5, each orally given 0.3, […] or 10 mg/kg of CP 3182 AR or a control.
An identical experiment was performed with CP 3192 AR at the same doses. Treatment was given immediately after the streptozotocin, and 7 and 24 hours later. The animals were sacrificed 27 hours after induction. Estimates were made of the effects of the products on the proportion of plasma glucose and the sorbitol content of the crystalline lenses and sciatic nerves of rats.

The subject of data set [2] is accumulation of sorbitol in the sciatic nerves. Description: Curative effect of single dose: sorbitol in sciatic nerves. The data set is classed as in vivo, Sprague Dawley rats. Particulars: for Accumulation of sorbitol in sciatic nerves, treated: 10 mg/kg oral. On the procedure:
2.3.2. Curative effect: CP 3192 AR was administered 24 hours after induction of diabetes.
As before, the experiment was made on 33 male Sprague Dawley rats weighing about 200 g. The 33 rats, which had been fasted the previous day, were made diabetic by an intraperitoneal injection of streptozotocin (75 mg/kg).
24 hours after induction of diabetes, 3 rats were sacrificed and used as diabetic controls. A dose of 10 mg/kg of CP 3192 AR was orally administered to 15 rats whereas the other 15 were given the excipient without an active product. 3 control rats and 3 rats treated with CP 3192 AR were sacrificed 2, 4, 8, 24 and 48 hours after administration of the product.
Estimates were made of the effects of the product on the proportion of plasma glucose and the sorbitol content of the crystalline lenses and sciatic nerves of rats made diabetic by streptozotocin.

Another data set relates to mice. Description: Teratogenic effect on mice. The format is in vivo. Particulars: oral doses of 100 mg/kg and 1 000 mg/kg.
In data set [3] the test system is sorbitol accumulation in crystalline lenses. Description: Effect of in vivo doses on sorbitol accumulation in crystalline lenses of diabetic rats. Further details: species or system Sprague Dawley rats. From the text: 2.2 Effect of "in vivo" doses on sorbitol accumulation in sciatic nerves and crystalline lenses of diabetic rats:
Estimates were made of the effects of the products on the proportion of plasma glucose and the sorbitol content of the crystalline lenses and sciatic nerves of rats.

The test system of data set [4] is accumulation of sorbitol in the sciatic nerves. Nature of the data set: Inhibition of accumulation of sorbitol in sciatic nerves of diabetic rats. The data set is classed as in vivo, Sprague Dawley rats. Particulars: oral 25 mg/kg at 0, 7 and 24 h, sacrificed 27 h.

The values below come from US4853401A, “Spiro-hydantoins as aldose reductase inhibitors” (priority 1987, dated 1989).

Usually ED50 stands for the dose that gives a 50% effect, or the effect in half of the subjects. `CC(=O)OCN1C(=O)N(COC(C)=O)C2(C1=O)c1ccccc1-c1ccccc12` [Compound 2, bis-(1',3'-acetoxymethyl)-spiro-/fluorene-9,4'-imidazolidine/-2',5'-dione]: in “Ames test”, the mutagenic effect entry is “does not have a mutagenic effect”. For the same compound, the Plasma glucose worked out at 425 ± 82 mg/100 ml in data set [1] (0.3 mg/kg oral), 444 ± 76 mg/100 ml in data set [1] (1 mg/kg oral), 446 ± 70 mg/100 ml in data set [1] (3 mg/kg oral) and 472 ± 55 mg/100 ml in data set [1] (10 mg/kg oral). The “Accumulation of sorbitol in sciatic nerves, treated” value came to 4.8 ± 2.0 µg in data set [2] (2 h after administration); 4.0 µg in data set [2] (4 h after administration, n = 1); 2.2 µg in data set [2] (8 h after administration, n = 1); 2.5 ± 0.4 µg in data set [2] (24 h after administration); 5.9 ± 1.8 µg in data set [2] (48 h after administration). Besides, the “proportion of sorbitol in sciatic nerves (in words)” value in data set [2] (single dose 10 mg/kg) is reported as “greatly reduces”. Besides, the teratogenic effect result in the data set on mice is listed as “does not have a mutagenic effect in the Ames test or teratogenic effect on mice”. In addition, the “% inhibition of sorbitol accumulation, Crystalline lenses” value in data set [3] (0.3 mg/kg oral at 0, 7, 24 h) is reported as 3 ± 25%; in data set [3] (1 mg/kg oral at 0, 7, 24 h), 13%; in data set [3] (3 mg/kg oral at 0, 7, 24 h), 46%; in data set [3] (10 mg/kg oral at 0, 7, 24 h) it was 66%. Besides, in data set [3] (Rattus norvegicus, 27 h, crystalline lenses, diabetic rats, oral, read-out: ED50 (dose at which measured inhibition of aldose reductase activity is 50%)), the ED50 turned out to be 3 mg/kg. In addition, in data set [3] (crystalline lenses), the “therapeutic index MED/ED50, crystalline lenses” value is reported as “about 1 000”. In addition, the “Inhibition of accumulation of sorbitol in vivo, in sciatic nerves” value in data set [4] came out at 85%.
